In article PMC9288506, “Compounds activating VCP D1 ATPase enhance both autophagic and proteasomal neurotoxic protein clearance” (Nature Communications, 2022):

What was measured:
Test in all cases: biochemical
Design in all cases: Thermo Fisher in vitro kinase panel, per cent inhibition of kinase activity at 10 uM
JAK3 = JAK3 (Homo sapiens, UniProt P52333)
Description: (§1) Kinase profiling of SMER28 and analogs SMER28 and analogs were tested at 10 µM in a panel of 123 kinases at ThermoFisher Scientific. Follow-up of selected kinases for SMER28 and analogs was also performed at ThermoFisher Scientific. Data are shown in Supplementary Data 2 and 3. […] An inhibition of PIK3C could induce autophagy, mediated by signaling through the AKT/mTOR axis[45].

FLT3 = FLT3 (Homo sapiens, UniProt P36888)
Description: as §1

INSR = INSR (Homo sapiens, UniProt P06213)
Description: as §1

PRKG1 = PRKG1 (Homo sapiens, UniProt Q13976)
Description: as §1

MAPK8 (JNK1) = MAPK8 (JNK1) (Homo sapiens, UniProt P45983)
Description: as §1

DMPK = DMPK (Homo sapiens, UniProt Q09013)
Description: as §1

DYRK2 = DYRK2 (Homo sapiens, UniProt Q92630)
Description: as §1

CDK9/cyclin T1 = CDK9/cyclin T1 (Homo sapiens, UniProt P50750)
Description: as §1

EPHB4 = EPHB4 (Homo sapiens, UniProt P54760)
Description: as §1

AURKB (Aurora B) = AURKB (Aurora B) (Homo sapiens, UniProt Q96GD4)
Description: as §1

ALK = ALK (Homo sapiens, UniProt Q9UM73)
Description: as §1

AKT1 (PKB alpha) = AKT1 (PKB alpha) (Homo sapiens, UniProt P31749)
Description: as §1

BTK = BTK (Homo sapiens, UniProt Q06187)
Description: as §1

ROCK2 = ROCK2 (Homo sapiens, UniProt O75116)
Description: as §1

GSK3A (GSK3 alpha) = GSK3A (GSK3 alpha) (Homo sapiens, UniProt P49840)
Description: as §1

FGFR1 V561M = FGFR1 V561M (Homo sapiens, UniProt P11362, V561M)
Description: as §1

TBK1 = TBK1 (Homo sapiens, UniProt Q9UHD2)
Description: as §1

[1] = biological target: MAP3K7/MAP3K7IP1 (TAK1-TAB1) (Homo sapiens, UniProt O43318)
Description: as §1

BRAF = BRAF (Homo sapiens, UniProt P15056)
Description: as §1

CSF1R (FMS) = CSF1R (FMS) (Homo sapiens, UniProt P07333)
Description: as §1

PIK3C3 (hVPS34) = PIK3C3 (hVPS34) (Homo sapiens, UniProt Q8NEB9)
Description: as §1

SGK (SGK1) = SGK (SGK1) (Homo sapiens, UniProt O00141)
Description: as §1

MYLK (MLCK) = MYLK (MLCK) (Homo sapiens, UniProt Q15746)
Description: as §1

RAF1 (cRAF) Y340D Y341D = RAF1 (cRAF) Y340D Y341D (Homo sapiens, UniProt P04049, Y340D/Y341D)
Description: as §1

FGFR2 = FGFR2 (Homo sapiens, UniProt P21802)
Description: as §1

Chain of JAK3 (P52333 whole entry): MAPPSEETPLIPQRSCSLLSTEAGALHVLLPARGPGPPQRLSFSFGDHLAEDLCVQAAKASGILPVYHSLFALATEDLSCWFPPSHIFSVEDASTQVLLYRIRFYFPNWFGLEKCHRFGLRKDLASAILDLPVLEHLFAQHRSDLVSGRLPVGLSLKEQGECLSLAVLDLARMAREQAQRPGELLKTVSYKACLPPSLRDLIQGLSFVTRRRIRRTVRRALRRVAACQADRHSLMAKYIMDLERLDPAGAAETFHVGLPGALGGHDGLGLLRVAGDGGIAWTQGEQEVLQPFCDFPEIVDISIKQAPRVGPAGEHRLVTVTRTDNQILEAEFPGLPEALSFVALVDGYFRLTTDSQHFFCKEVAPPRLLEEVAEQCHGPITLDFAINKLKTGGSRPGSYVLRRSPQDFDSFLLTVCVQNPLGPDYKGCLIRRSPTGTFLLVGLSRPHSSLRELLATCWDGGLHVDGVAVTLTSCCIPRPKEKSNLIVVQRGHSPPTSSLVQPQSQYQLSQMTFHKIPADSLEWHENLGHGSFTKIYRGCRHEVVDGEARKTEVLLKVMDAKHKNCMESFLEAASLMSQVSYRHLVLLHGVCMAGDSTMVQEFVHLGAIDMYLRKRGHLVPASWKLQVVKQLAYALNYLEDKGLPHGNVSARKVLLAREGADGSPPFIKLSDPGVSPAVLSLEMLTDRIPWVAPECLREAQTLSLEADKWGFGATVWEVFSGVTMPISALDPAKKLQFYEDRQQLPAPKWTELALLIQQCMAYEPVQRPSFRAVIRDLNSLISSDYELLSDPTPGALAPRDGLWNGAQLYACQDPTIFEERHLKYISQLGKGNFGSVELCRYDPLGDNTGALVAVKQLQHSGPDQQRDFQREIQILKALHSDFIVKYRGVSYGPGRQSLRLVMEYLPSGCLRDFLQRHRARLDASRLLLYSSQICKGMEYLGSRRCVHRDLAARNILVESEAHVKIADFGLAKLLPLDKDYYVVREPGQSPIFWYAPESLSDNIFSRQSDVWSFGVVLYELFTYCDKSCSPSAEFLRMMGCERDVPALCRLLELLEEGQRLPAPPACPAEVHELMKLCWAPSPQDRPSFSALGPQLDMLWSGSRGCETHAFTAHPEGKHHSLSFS
Chain of EPHB4 (P54760 whole entry): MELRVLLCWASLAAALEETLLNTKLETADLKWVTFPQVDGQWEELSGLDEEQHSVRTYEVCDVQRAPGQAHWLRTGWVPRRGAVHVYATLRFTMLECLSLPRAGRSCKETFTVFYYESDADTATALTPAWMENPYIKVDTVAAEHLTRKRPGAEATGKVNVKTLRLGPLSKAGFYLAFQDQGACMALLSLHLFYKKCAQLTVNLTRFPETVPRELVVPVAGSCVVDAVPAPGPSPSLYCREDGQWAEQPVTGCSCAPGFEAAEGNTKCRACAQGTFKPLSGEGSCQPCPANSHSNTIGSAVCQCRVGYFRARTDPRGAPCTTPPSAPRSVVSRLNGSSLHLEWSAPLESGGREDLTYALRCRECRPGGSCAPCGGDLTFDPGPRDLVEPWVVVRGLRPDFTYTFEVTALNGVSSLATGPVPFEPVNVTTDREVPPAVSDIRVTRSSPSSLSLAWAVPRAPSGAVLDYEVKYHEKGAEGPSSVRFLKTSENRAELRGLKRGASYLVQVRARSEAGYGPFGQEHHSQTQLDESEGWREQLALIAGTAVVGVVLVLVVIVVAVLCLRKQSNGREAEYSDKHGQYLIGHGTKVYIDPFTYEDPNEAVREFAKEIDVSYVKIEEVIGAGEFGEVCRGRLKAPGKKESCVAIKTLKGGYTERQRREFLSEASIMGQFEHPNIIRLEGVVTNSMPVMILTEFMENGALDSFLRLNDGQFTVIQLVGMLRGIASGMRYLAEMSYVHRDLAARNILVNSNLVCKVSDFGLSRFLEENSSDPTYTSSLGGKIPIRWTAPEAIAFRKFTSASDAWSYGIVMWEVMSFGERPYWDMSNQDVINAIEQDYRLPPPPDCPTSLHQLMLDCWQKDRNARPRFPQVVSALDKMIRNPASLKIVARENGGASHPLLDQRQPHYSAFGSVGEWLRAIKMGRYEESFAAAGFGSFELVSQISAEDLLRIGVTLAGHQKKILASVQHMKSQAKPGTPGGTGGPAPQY
Chain of DYRK2 (Q92630 whole entry): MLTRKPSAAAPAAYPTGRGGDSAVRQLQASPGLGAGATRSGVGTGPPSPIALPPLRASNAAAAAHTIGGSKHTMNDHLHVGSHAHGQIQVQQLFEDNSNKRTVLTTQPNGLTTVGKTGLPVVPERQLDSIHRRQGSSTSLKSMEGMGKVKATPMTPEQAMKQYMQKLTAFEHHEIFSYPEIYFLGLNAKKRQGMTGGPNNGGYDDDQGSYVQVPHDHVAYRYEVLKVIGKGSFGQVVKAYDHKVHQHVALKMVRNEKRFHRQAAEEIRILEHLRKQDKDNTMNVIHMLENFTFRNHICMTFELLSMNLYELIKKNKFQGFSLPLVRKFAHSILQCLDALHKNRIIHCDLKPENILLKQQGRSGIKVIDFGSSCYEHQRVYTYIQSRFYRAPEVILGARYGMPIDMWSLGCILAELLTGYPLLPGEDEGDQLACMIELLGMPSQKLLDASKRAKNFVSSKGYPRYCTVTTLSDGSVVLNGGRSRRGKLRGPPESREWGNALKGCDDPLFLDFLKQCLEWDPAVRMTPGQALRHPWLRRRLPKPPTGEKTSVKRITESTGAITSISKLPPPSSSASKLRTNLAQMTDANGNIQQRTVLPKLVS
Chain of GSK3A (GSK3 alpha) (P49840 whole entry): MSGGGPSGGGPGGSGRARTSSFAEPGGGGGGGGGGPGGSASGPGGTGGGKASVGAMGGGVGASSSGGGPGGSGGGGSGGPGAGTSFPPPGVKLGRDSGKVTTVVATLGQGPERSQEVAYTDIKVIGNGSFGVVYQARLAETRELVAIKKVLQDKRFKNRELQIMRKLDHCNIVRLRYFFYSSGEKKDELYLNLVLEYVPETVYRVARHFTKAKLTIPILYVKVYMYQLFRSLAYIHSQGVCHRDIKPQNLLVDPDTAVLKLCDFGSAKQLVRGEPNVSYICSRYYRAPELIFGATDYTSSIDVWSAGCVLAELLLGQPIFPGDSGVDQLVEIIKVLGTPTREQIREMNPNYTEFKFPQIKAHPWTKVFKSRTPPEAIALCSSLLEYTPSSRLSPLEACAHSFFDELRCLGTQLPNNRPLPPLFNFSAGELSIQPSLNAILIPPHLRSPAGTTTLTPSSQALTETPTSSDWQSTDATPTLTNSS
Chain of AKT1 (PKB alpha) (P31749 whole entry): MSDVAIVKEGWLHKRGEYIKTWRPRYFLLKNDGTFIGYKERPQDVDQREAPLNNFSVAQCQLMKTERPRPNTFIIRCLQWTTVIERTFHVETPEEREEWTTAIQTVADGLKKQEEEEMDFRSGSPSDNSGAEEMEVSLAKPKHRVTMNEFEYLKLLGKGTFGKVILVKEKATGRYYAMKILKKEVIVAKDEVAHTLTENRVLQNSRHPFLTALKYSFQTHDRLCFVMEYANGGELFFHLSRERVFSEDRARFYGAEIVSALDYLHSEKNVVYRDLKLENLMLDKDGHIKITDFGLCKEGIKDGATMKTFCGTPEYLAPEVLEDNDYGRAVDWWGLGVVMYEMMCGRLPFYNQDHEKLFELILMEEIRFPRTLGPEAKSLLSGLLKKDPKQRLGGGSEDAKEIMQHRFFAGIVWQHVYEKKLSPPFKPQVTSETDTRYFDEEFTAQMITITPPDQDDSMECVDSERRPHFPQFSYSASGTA
Chain of PIK3C3 (hVPS34) (Q8NEB9 whole entry): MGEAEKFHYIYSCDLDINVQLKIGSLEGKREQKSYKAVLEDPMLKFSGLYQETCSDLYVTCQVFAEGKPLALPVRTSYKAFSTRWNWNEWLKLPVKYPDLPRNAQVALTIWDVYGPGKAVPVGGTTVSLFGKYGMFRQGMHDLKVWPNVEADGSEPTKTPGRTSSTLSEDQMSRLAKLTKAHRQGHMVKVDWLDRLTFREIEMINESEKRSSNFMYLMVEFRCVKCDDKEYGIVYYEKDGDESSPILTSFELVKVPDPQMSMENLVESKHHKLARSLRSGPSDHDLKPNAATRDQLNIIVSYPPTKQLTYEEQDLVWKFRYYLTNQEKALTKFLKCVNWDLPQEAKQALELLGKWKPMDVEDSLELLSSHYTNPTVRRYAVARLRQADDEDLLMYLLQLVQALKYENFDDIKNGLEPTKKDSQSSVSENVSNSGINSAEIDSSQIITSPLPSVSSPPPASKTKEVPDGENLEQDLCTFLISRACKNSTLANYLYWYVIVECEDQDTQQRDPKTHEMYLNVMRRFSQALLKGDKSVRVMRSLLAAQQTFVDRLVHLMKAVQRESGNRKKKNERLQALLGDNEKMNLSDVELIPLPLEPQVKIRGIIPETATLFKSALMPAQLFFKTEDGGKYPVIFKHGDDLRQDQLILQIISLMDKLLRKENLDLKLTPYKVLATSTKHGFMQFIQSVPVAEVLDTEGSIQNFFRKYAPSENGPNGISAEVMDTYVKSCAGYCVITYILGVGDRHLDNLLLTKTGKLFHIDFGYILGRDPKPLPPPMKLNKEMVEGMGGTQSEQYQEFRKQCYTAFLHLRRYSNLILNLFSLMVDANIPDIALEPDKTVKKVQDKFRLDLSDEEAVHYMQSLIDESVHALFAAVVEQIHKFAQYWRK
Chain of SGK (SGK1) (O00141 whole entry): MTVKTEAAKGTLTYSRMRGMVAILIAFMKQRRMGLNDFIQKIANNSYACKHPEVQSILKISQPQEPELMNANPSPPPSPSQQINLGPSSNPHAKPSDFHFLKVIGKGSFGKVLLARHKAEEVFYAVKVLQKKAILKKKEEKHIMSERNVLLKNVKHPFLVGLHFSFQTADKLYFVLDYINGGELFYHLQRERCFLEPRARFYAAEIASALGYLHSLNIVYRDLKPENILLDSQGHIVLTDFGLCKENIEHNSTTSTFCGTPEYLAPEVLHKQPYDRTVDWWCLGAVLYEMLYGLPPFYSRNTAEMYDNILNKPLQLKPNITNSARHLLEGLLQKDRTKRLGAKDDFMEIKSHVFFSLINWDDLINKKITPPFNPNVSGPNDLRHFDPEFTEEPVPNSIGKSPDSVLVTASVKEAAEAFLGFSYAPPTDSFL

C=CCNc1ncnc2ccc(Br)cc12 [SMER28]
inhibition at 10 µM (JAK3): 14% | inhibition at 10 µM (FLT3): 40% | inhibition at 10 µM (INSR): -1% | inhibition at 10 µM (PRKG1): 6% | inhibition at 10 µM (MAPK8 (JNK1)): -2% | inhibition at 10 µM (DMPK): 57% | inhibition at 10 µM (DYRK2): 67% | inhibition at 10 µM (CDK9/cyclin T1): 40% | inhibition at 10 µM (EPHB4): -1% | inhibition at 10 µM (AURKB (Aurora B)): 18% | inhibition at 10 µM (ALK): 25% | inhibition at 10 µM (AKT1 (PKB alpha)): 3% | inhibition at 10 µM (BTK): 8% | inhibition at 10 µM (ROCK2): -5% | inhibition at 10 µM (GSK3A (GSK3 alpha)): 23% | inhibition at 10 µM (FGFR1 V561M): 9% | inhibition at 10 µM (TBK1): 4% | inhibition at 10 µM [1]: 34% | inhibition at 10 µM (BRAF): 13% | inhibition at 10 µM (CSF1R (FMS)): 39% | inhibition at 10 µM (PIK3C3 (hVPS34)): 12% | inhibition at 10 µM (SGK (SGK1)): 15% | inhibition at 10 µM (MYLK (MLCK)): 12% | inhibition at 10 µM (RAF1 (cRAF) Y340D Y341D): 13% | inhibition at 10 µM (FGFR2): 19%
